Source: ChEMBL document CHEMBL4825753 (J Med Chem, 2021)

Columns and labels:
[1] = target: T1, Tyrosine-protein kinase receptor UFO (Homo sapiens, UniProt P30530); experiment: Inhibition of AXL (unknown origin) by LC-MS analysis
T1 sequence (P30530 whole entry): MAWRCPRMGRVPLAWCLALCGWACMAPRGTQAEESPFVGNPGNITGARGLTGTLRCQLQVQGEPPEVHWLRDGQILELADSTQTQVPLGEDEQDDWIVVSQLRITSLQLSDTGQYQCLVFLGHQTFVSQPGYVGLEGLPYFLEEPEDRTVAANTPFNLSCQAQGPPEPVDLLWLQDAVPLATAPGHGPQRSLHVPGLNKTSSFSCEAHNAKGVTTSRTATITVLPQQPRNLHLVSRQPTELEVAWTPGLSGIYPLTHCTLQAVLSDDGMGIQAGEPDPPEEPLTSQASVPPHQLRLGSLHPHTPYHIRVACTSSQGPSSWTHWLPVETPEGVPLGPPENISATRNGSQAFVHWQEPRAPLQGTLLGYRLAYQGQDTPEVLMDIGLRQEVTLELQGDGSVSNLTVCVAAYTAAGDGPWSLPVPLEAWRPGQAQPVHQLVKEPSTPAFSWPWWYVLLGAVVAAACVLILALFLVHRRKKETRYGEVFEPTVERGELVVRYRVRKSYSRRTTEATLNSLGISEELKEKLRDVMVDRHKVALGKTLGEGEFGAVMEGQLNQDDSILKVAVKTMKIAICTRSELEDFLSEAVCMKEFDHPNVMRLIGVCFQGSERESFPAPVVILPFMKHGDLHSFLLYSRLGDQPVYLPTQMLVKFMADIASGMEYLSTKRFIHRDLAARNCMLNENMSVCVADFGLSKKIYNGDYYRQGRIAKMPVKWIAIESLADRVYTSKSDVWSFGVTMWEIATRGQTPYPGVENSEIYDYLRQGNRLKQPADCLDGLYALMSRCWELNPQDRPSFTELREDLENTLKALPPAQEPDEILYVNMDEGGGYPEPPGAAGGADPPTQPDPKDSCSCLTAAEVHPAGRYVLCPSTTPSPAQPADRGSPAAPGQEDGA

[2] = target: T2, Receptor-type tyrosine-protein kinase FLT3 (Homo sapiens, UniProt P36888); experiment: Inhibition of FLT3 (unknown origin) by LC-MS analysis
T2 sequence (P36888 whole entry): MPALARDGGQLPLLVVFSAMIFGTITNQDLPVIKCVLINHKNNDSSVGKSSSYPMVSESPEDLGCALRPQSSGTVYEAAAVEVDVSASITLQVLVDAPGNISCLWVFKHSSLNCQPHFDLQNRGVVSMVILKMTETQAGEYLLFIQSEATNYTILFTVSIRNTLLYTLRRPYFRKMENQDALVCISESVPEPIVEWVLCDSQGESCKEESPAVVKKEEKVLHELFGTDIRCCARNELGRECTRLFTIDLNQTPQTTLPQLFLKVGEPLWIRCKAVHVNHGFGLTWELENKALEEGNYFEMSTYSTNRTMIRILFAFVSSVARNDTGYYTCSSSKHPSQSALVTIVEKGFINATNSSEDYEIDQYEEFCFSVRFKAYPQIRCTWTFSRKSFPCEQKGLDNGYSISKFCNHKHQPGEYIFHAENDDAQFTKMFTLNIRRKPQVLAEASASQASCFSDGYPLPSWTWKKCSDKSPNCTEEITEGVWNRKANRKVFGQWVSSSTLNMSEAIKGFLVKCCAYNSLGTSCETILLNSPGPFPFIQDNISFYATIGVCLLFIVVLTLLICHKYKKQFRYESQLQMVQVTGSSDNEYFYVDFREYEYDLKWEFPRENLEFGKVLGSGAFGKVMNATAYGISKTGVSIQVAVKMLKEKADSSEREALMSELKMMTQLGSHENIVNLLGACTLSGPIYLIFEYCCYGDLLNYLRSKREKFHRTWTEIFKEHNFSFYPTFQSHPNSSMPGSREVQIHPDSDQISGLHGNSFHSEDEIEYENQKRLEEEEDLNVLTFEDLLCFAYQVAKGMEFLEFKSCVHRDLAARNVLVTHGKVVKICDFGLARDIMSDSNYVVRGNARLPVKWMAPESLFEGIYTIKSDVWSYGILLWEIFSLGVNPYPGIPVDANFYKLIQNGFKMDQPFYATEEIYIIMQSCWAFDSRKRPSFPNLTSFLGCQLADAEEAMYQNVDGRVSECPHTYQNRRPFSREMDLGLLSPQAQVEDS

[3] = target: T1, Tyrosine-protein kinase receptor UFO; experiment: Inhibition of FLAG-tagged AXL (unknown origin) transfected in Cos-7 cells assessed as phosphorylation level incubated for 1 hr by ELISA; assay type: cell-based
[4] = target: T2, Receptor-type tyrosine-protein kinase FLT3; experiment: Inhibition of FLAG-tagged FLT3 (unknown origin) transfected in Cos-7 cells assessed as phosphorylation level incubated for 1 hr by ELISA; assay type: cell-based
[5] = Lipophilicity, log D of the compound at pH 7.4; assay type: physicochemical; settings: buffer
[6] = target: T3, Tyrosine-protein kinase receptor TYRO3 (Homo sapiens, UniProt Q06418); experiment: Inhibition of FLAG-tagged Tyro3 (unknown origin) transfected in Cos-7 cells assessed as phosphorylation level incubated for 1 hr by ELISA; assay type: cell-based
T3 sequence (Q06418 whole entry): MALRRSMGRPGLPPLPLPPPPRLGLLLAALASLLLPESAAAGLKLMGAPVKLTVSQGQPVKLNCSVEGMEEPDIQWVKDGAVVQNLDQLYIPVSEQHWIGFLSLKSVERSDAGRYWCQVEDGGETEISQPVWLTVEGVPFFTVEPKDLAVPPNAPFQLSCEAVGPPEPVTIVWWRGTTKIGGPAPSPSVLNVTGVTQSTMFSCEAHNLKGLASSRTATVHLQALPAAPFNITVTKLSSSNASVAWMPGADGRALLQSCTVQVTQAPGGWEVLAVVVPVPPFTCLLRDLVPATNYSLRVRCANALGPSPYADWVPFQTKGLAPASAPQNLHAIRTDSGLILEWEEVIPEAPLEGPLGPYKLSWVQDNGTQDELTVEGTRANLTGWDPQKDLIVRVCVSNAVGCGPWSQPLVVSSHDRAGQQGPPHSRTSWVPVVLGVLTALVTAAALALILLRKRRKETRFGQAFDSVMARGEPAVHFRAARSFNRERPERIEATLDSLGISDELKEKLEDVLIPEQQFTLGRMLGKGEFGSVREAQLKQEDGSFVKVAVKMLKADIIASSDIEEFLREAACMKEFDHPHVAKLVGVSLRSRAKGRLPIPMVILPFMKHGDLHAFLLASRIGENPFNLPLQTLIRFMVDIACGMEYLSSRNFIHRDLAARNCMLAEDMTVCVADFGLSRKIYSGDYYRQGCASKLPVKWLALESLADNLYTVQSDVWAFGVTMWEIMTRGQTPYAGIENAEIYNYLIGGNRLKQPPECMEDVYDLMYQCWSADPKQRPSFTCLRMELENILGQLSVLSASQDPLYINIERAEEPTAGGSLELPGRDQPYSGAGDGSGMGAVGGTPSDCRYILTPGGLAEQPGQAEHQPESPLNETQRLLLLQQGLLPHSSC

[7] = Induction efferocytosis in human PBMC assessed as CD14-positive monocytes

| SMILES | IC50 [1] | IC50 [2] | IC50 [3] | IC50 [4] | logD [5] | IC50 [6] | pIC50 [7] |
| --- | --- | --- | --- | --- | --- | --- | --- |
| Cc1cc(-c2c(C)nn(C)c2C)ccc1-c1nnc(N(C)Cc2ccc3nccn3c2)o1 | 0.0794 µM | 15.8 µM | 0.398 µM | 20 µM | 3.7 | > 31.6 µM | 6.8 |
| Cc1cc(-c2c(C)nn(C)c2C)cnc1-c1nnc(N(C)Cc2ccc3nccn3c2)o1 | 1 µM | 20 µM | 6.31 µM | > 31.6 µM | 2.8 | > 31.6 µM | 6 |
| Cc1cc(-c2c(C)nn(C)c2C)cnc1-c1nnc(N(C)Cc2ccc3ncc(-c4ccc(CN(C)C)cc4)n3c2)o1 | – | – | 0.1 µM | > 31.6 µM | 2.9 | > 31.6 µM | 7.6 |
